Results published in BigSolDB 2.1.

Structure (SMILES): Nc1nc(NC2CC2)c2ncn([C@H]3C=C[C@@H](CO)C3)c2n1
- solubility (mole fraction) (in acetone, 278.15 K): 0.00115
- solubility (mole fraction) (in acetone, 283.15 K): 0.00123
- solubility (mole fraction) (in acetone, 288.15 K): 0.00131
- solubility (mole fraction) (in acetone, 293.15 K): 0.00142
- solubility (mole fraction) (in acetone, 298.15 K): 0.00155
- solubility (mole fraction) (in acetone, 303.15 K): 0.00169
- solubility (mole fraction) (in acetone, 308.15 K): 0.00183
- solubility (mole fraction) (in acetone, 313.15 K): 0.00205
- solubility (mole fraction) (in acetone, 318.15 K): 0.00225
- solubility (mole fraction) (in acetone, 323.15 K): 0.00247
- solubility (mole fraction) (in ethanol, 278.15 K): 0.00601
- solubility (mole fraction) (in ethanol, 283.15 K): 0.00651
- solubility (mole fraction) (in ethanol, 288.15 K): 0.00716
- solubility (mole fraction) (in ethanol, 293.15 K): 0.00803
- solubility (mole fraction) (in ethanol, 298.15 K): 0.00903
- solubility (mole fraction) (in ethanol, 303.15 K): 0.0104
- solubility (mole fraction) (in ethanol, 308.15 K): 0.0123
- solubility (mole fraction) (in ethanol, 313.15 K): 0.0142
- solubility (mole fraction) (in ethanol, 318.15 K): 0.0162
- solubility (mole fraction) (in ethanol, 323.15 K): 0.0184
- solubility (mole fraction) (in ethyl acetate, 278.15 K): 0.000631
- solubility (mole fraction) (in ethyl acetate, 283.15 K): 0.000705
- solubility (mole fraction) (in ethyl acetate, 288.15 K): 0.000796
- solubility (mole fraction) (in ethyl acetate, 293.15 K): 0.000906
- solubility (mole fraction) (in ethyl acetate, 298.15 K): 0.00102
- solubility (mole fraction) (in ethyl acetate, 303.15 K): 0.00112
- solubility (mole fraction) (in ethyl acetate, 308.15 K): 0.00127
- solubility (mole fraction) (in ethyl acetate, 313.15 K): 0.00147
- solubility (mole fraction) (in ethyl acetate, 318.15 K): 0.00168
- solubility (mole fraction) (in ethyl acetate, 323.15 K): 0.00192
- solubility (mole fraction) (in isobutanol, 278.15 K): 0.00772
- solubility (mole fraction) (in isobutanol, 283.15 K): 0.00823
- solubility (mole fraction) (in isobutanol, 288.15 K): 0.00896
- solubility (mole fraction) (in isobutanol, 293.15 K): 0.0101
- solubility (mole fraction) (in isobutanol, 298.15 K): 0.0113
- solubility (mole fraction) (in isobutanol, 303.15 K): 0.0121
- solubility (mole fraction) (in isobutanol, 308.15 K): 0.0131
- solubility (mole fraction) (in isobutanol, 313.15 K): 0.0144
- solubility (mole fraction) (in isobutanol, 318.15 K): 0.0164
- solubility (mole fraction) (in isobutanol, 323.15 K): 0.0182
- solubility (mole fraction) (in isopropanol, 278.15 K): 0.00451
- solubility (mole fraction) (in isopropanol, 283.15 K): 0.00483
- solubility (mole fraction) (in isopropanol, 288.15 K): 0.00534
- solubility (mole fraction) (in isopropanol, 293.15 K): 0.006
- solubility (mole fraction) (in isopropanol, 298.15 K): 0.00655
- solubility (mole fraction) (in isopropanol, 303.15 K): 0.00744
- solubility (mole fraction) (in isopropanol, 308.15 K): 0.00855
- solubility (mole fraction) (in isopropanol, 313.15 K): 0.0096
- solubility (mole fraction) (in isopropanol, 318.15 K): 0.0111
- solubility (mole fraction) (in isopropanol, 323.15 K): 0.0123
- solubility (mole fraction) (in methanol, 278.15 K): 0.00623
- solubility (mole fraction) (in methanol, 283.15 K): 0.00688
- solubility (mole fraction) (in methanol, 288.15 K): 0.00825
- solubility (mole fraction) (in methanol, 293.15 K): 0.00965
- solubility (mole fraction) (in methanol, 298.15 K): 0.0109
- solubility (mole fraction) (in methanol, 303.15 K): 0.0126
- solubility (mole fraction) (in methanol, 308.15 K): 0.0147
- solubility (mole fraction) (in methanol, 313.15 K): 0.0181
- solubility (mole fraction) (in methanol, 318.15 K): 0.0209
- solubility (mole fraction) (in methanol, 323.15 K): 0.0241
- solubility (mole fraction) (in methyl acetate, 278.15 K): 0.000901
- solubility (mole fraction) (in methyl acetate, 283.15 K): 0.00101
- solubility (mole fraction) (in methyl acetate, 288.15 K): 0.0011
- solubility (mole fraction) (in methyl acetate, 293.15 K): 0.00123
- solubility (mole fraction) (in methyl acetate, 298.15 K): 0.0014
- solubility (mole fraction) (in methyl acetate, 303.15 K): 0.00156
- solubility (mole fraction) (in methyl acetate, 308.15 K): 0.00176
- solubility (mole fraction) (in methyl acetate, 313.15 K): 0.00206
- solubility (mole fraction) (in methyl acetate, 318.15 K): 0.0023
- solubility (mole fraction) (in methyl acetate, 323.15 K): 0.0026
- solubility (mole fraction) (in n-butanol, 278.15 K): 0.00718
- solubility (mole fraction) (in n-butanol, 283.15 K): 0.00798
- solubility (mole fraction) (in n-butanol, 288.15 K): 0.0089
- solubility (mole fraction) (in n-butanol, 293.15 K): 0.0103
- solubility (mole fraction) (in n-butanol, 298.15 K): 0.0117
- solubility (mole fraction) (in n-butanol, 303.15 K): 0.0133
- solubility (mole fraction) (in n-butanol, 308.15 K): 0.0155
- solubility (mole fraction) (in n-butanol, 313.15 K): 0.0177
- solubility (mole fraction) (in n-butanol, 318.15 K): 0.0204
- solubility (mole fraction) (in n-butanol, 323.15 K): 0.0231
- solubility (mole fraction) (in n-pentanol, 278.15 K): 0.00898
- solubility (mole fraction) (in n-pentanol, 283.15 K): 0.0106
- solubility (mole fraction) (in n-pentanol, 288.15 K): 0.012
- solubility (mole fraction) (in n-pentanol, 293.15 K): 0.0134
- solubility (mole fraction) (in n-pentanol, 298.15 K): 0.0153
- solubility (mole fraction) (in n-pentanol, 303.15 K): 0.0169
- solubility (mole fraction) (in n-pentanol, 308.15 K): 0.0195
- solubility (mole fraction) (in n-pentanol, 313.15 K): 0.0226
- solubility (mole fraction) (in n-pentanol, 318.15 K): 0.0248
- solubility (mole fraction) (in n-pentanol, 323.15 K): 0.0277
- solubility (mole fraction) (in n-propanol, 278.15 K): 0.00798
- solubility (mole fraction) (in n-propanol, 283.15 K): 0.0087
- solubility (mole fraction) (in n-propanol, 288.15 K): 0.00952
- solubility (mole fraction) (in n-propanol, 293.15 K): 0.0107
- solubility (mole fraction) (in n-propanol, 298.15 K): 0.0119
- solubility (mole fraction) (in n-propanol, 303.15 K): 0.0136
- solubility (mole fraction) (in n-propanol, 308.15 K): 0.0159
- solubility (mole fraction) (in n-propanol, 313.15 K): 0.0184
- solubility (mole fraction) (in n-propanol, 318.15 K): 0.0211
- solubility (mole fraction) (in n-propanol, 323.15 K): 0.024
- solubility (mole fraction) (in sec-butanol, 278.15 K): 0.00768
- solubility (mole fraction) (in sec-butanol, 283.15 K): 0.00844
- solubility (mole fraction) (in sec-butanol, 288.15 K): 0.00927
- solubility (mole fraction) (in sec-butanol, 293.15 K): 0.0104
- solubility (mole fraction) (in sec-butanol, 298.15 K): 0.0118
- solubility (mole fraction) (in sec-butanol, 303.15 K): 0.0134
- solubility (mole fraction) (in sec-butanol, 308.15 K): 0.015
- solubility (mole fraction) (in sec-butanol, 313.15 K): 0.0172
- solubility (mole fraction) (in sec-butanol, 318.15 K): 0.0197
- solubility (mole fraction) (in sec-butanol, 323.15 K): 0.0222
- solubility (mole fraction) (in water, 278.15 K): 0.000239
- solubility (mole fraction) (in water, 283.15 K): 0.000266
- solubility (mole fraction) (in water, 288.15 K): 0.000295
- solubility (mole fraction) (in water, 293.15 K): 0.000334
- solubility (mole fraction) (in water, 298.15 K): 0.000386
- solubility (mole fraction) (in water, 303.15 K): 0.000436
- solubility (mole fraction) (in water, 308.15 K): 0.0005
- solubility (mole fraction) (in water, 313.15 K): 0.000547
- solubility (mole fraction) (in water, 318.15 K): 0.000649
- solubility (mole fraction) (in water, 323.15 K): 0.000748
